US20230217926A1, “SELECTIVE HERBICIDES BASED ON SUBSTITUTED ISOXAZOLIN CARBOXAMIDES AND ISOXADIFEN-ETHYL” (BAYER AKTIENGESELLSCHAFT, priority 2020, published 2023)
Values joined by “and” are separate entries in the source; they are usually repeats but may differ in a detail not shown here. Identical values can stand only once.

Key:
[1] = test system: ZEAMA Sileno; assay: Safener seed treatment, pre-emergence herbicide, crop damage; assay type: in vivo, maize; set-up: key to Reduction [Difference]: % crop damage without safener minus % damage with safener; conditions: for Reduction [%] / Reduction [Difference]: isoxadifen-ethyl 0.25 g a.i./kg seed; for HER effect + SAF: isoxadifen-ethyl seed treatment 0.25 g a.i./kg seed; for HER effect: no safener
Description: For the safener seed treatment, sufficient seeds of the respective crops (spring wheat, TRZAS; spring barley, HORVS; maize, ZEAMA) were weighed into screw top glass bottles approximately twice the volume of the seeds.
The specified safeners, formulated as wettable powder (WP) were weighed out so that the specified rates (g a.i./kg seed) would be obtained, dissolved in water (1 ml water per 10 g of seeds), and added to the seeds to produce a slurry.
The bottles were capped and then placed in an overhead shaker (set at medium speed for ca. 60 minutes) so that the seeds were evenly coated with the slurry. The bottles were uncapped and the seeds were either placed on paper and dried for an interval of 3-4 hours prior to sowing, or directly sown. Seeds were placed in sandy loam soil in pots of a diameter of 7-8 cm, and covered with soil.
Pre-emergence application of the specified herbicides was done subsequently, on two sets of plants: a) seed treatment with safener, as described above
The herbicides were formulated as WP and was sprayed onto the soil surface as an aqueous suspension at an equivalent water application rate of 300 l/ha.
After application, the test plants were kept in the greenhouse under good growth conditions. At intervals up to 4 weeks after application (=28 days after treatment; DAT), % crop damage observed on the treated plants was scored visually in comparison to control plants that had not received any safener or herbicide treatment.
Values in the table below are mean values of at least 2 replicates.
Reduction[Difference]=herbicide damage without safener−herbicide damage with safener Reduction[%]=(Reduction[Difference]*100)/herbicide damage without safener […]
c) Plant Species, Variety: ZEAMA Sileno, Safener (SAF): Isoxadifen-Ethyl

[2] = test system: ZEAMA Sileno; assay: Tank-mix post-emergence crop damage, greenhouse, visual assessment; assay type: in vivo, maize; set-up: key to Reduction [Difference]: % points: herbicide damage without safener − damage with safener; conditions: for HER effect + SAF / Reduction [%] / Reduction [Difference]: Final; for HER effect: no safener, Final assessment
Description: Seeds of crops (spring wheat, TRZAS; spring barley, HORVS; maize, ZEAMA) were placed in sandy loam soil in peat pots, covered with soil and cultivated in a greenhouse under good growth conditions. Two to three weeks after sowing, the test plants were treated at the 1 to 3-leaf stage. The herbicide/safener active compound combinations according to the invention, formulated as wettable powders or emulsion concentrates, and, in parallel tests, the correspondingly formulated individual active compounds were sprayed onto the green parts of the plants in various dosages using an amount of water of 300 l/ha (converted).
The pots were returned under good growing conditions in a glasshouse and a visual assessment of herbicidal effects was made at intervals from 1 to 3 weeks after herbicide application (DAT=days after treatment). Assessment was on a percentage basis in comparison with untreated control plants (0%=no injury, 100%=complete kill).
Reduction[Difference]=herbicide damage without safener−herbicide damage with safener Reduction[%]=(Reduction[Difference]*100)/herbicide damage without safener
a) Plant Species, Variety: ZEAMA Sileno, Safener (SAF): Isoxadifen-Ethyl

[3] = HER 40 g a.i./ha pre-emergence, 14 DAT
[4] = HER 40 g a.i./ha pre-emergence, 26 DAT
[5] = HER 8 g a.i./ha + isoxadifen-ethyl 50 g a.i./ha
[6] = HER 8 g a.i./ha, isoxadifen-ethyl 50 g a.i./ha
[7] = HER 32 g a.i./ha + isoxadifen-ethyl 100 g a.i./ha
[8] = HER 32 g a.i./ha, isoxadifen-ethyl 100 g a.i./ha
[9] = HER 2 g a.i./ha, isoxadifen-ethyl 50 g a.i./ha
[10] = HER 80 g a.i./ha pre-emergence, 14 DAT

Compound	HER effect + SAF [2, 5]	Reduction [%] [2, 6]	Reduction [Difference] [2, 6]	HER effect ([2]; HER 8 g a.i./ha)	HER effect + SAF [2, 7]	Reduction [%] [2, 8]	Reduction [Difference] [2, 8]	HER effect ([2]; HER 32 g a.i./ha)	other results
C=CC1(C(=O)NC2COC(C(=O)OC)C2)CC(c2cc(F)cc(F)c2)=NO1 (centres unmarked) [Example 1.69]	33%	64%	59	92%	30%	68%	63	93%	Reduction [%] [1, 3]: 42%; Reduction [Difference] [1, 3]: 40; Reduction [%] [1, 4]: 28%; Reduction [Difference] [1, 4]: 25; HER effect + SAF [1, 3]: 55%; HER effect + SAF [1, 4]: 65%; HER effect [1, 3]: 95%; HER effect [1, 4]: 90%
C=CC1(C(=O)NC2COC(C(=O)OCCOC)C2)CC(c2cc(F)cc(F)c2)=NO1 (mixture of isomers) [Example 1.66]	43%	55%	53	96%	47%	52%	50	97%	
C=CCOC(=O)C1CC(NC(=O)C2(C)CC(c3cc(F)cc(F)c3)=NO2)CO1 (mixture of isomers) [Example 1.75]	23%	68%	50	73%	43%	51%	45	88%	
CCOC(=O)C1C=CC(NC(=O)C2(CF)CC(c3cc(F)cc(F)c3)=NO2)C1 (centres unmarked) [Example 1.17]	20%	79%	75	95%					HER effect + SAF ([2]; HER 2 g a.i./ha + isoxadifen-ethyl 50 g a.i./ha): 10%; Reduction [%] [2, 9]: 78%; Reduction [Difference] [2, 9]: 35; HER effect ([2]; HER 2 g a.i./ha, 0%=no injury, 100%=complete kill): 45%
COC(=O)C1C=CC(NC(=O)C2(C)CC(c3cc(F)cc(F)c3)=NO2)C1 (centres unmarked) [Example 1.19]	20%	50%	20	40%					
C=CCOC(=O)C1CC(NC(=O)C2(C=C)CC(c3cc(F)cc(F)c3)=NO2)CO1 (mixture of isomers) [Example 1.83]	28%	55%	34	62%	20%	76%	65	85%	
CCOC(=O)C1C=CC(NC(=O)C2(C(F)(F)F)CC(c3ccccc3)=NO2)C1 (centres unmarked) [Example 1.9]	22%	72%	56	78%	22%	74%	63	85%	Reduction [%] [1, 10]: 83%; Reduction [Difference] [1, 10]: 25; HER effect + SAF [1, 10]: 5%; HER effect [1, 10]: 30%
CCOC(=O)C1=CCC(NC(=O)C2(C)CC(c3cccc(F)c3)=NO2)C1 (centres unmarked) [Example 1.59]					10%	85%	57	67%	
COC(=O)C1=CC(NC(=O)C2(C)CC(c3cc(F)cc(F)c3)=NO2)CC1 (centres unmarked) [Example 1.63]	40%	53%	45	85%	43%	51%	45	88%	Reduction [%] [1, 3]: 50%; Reduction [Difference] [1, 3]: 30; Reduction [%] [1, 4]: 100%; Reduction [Difference] [1, 4]: 25; HER effect + SAF [1, 3]: 30%; HER effect + SAF [1, 4]: 0%; HER effect [1, 3]: 60%; HER effect [1, 4]: 25%
COCCOC(=O)C1C=CC(NC(=O)C2(C(F)(F)F)CC(c3cc(F)cc(C#N)c3)=NO2)C1 (centres unmarked) [Example 1.2]	65%	28%	25	90%	75%	22%	21	96%	Reduction [%] [1, 10]: 78%; Reduction [Difference] [1, 10]: 35; HER effect + SAF [1, 10]: 10%; HER effect [1, 10]: 45%
C=CC1(C(=O)NC2COC(C(=O)OCCCl)C2)CC(c2cc(F)cc(F)c2)=NO1 (mixture of isomers) [Example 1.82]	65% and 53%	28% and 43%	25 and 40	90% and 93%	75% and 55%	22% and 40%	21 and 37	96% and 92%	
CC1(C(=O)NC2C=CC(C(=O)OCCSCc3ccccc3)C2)CC(c2cc(F)cc(F)c2)=NO1 (centres unmarked) [Example 1.27]					30%	50%	30	60%	
COC(=O)C1C=CC(NC(=O)C2(C)CC(c3cc(Cl)cc(C#N)c3)=NO2)C1 (mixture of isomers) [Example 1.23]	30%	40%	20	50%	30%	57%	40	70%	
